Measurements taken from US20090233938A1, “Thiazole derivatives as a2b antagonists” (priority 2004, published 2009).

Target: T1, human adenosine A2b receptor (Homo sapiens, UniProt P29275)
T1 construct: expressed in transfected cells; host or cells: CHO cells co-transfected with reporter plasmid pCRE-LUCI and pA2bRCV
T1 sequence (P29275 1-332): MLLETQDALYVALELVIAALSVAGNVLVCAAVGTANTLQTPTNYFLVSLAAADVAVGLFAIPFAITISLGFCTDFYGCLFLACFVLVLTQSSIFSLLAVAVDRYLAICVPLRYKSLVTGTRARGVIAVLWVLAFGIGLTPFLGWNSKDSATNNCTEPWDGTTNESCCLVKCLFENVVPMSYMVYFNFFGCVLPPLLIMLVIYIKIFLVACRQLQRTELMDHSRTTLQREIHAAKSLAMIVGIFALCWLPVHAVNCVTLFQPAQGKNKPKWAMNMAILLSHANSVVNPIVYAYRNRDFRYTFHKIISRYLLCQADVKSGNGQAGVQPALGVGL
Experiment: Adenosine A2b receptor reporter gene assay (luciferase, CHO-A2b cells, NECA agonist)
Type: cell-based
Settings: CHO cells with pCRE-LUCI and human A2b receptor; antagonist at 100 nM or 1 μM; shift of NECA concentration-response curve; KB=[antagonist]/(concentration ratio−1)
Procedure: Adenosine A2b Receptor Reporter Gene Assay a) Culturing of Chinese Hamster Ovary (CHO) A2b Cell Line
CHO cells transfected with a Luciferase-expressing reporter plasmid (pCRE-LUCI) and with a plasmid carrying the human adenosine A2b receptor structural gene (pA2bRCV) are routinely cultured in Dulbecco's Modified Eagle Medium (DMEM)—supplemented with 10% v/v fetal calf serum (FCS), 2 mM L-glutamine, 0.4 mg/ml L-proline, 1 nM sodium selenite, 0.5 mg/ml Hygromycin B and 1 mg/ml Geneticin—at 37° C., 5% CO2 and 100% humidity. The cells are left to grow to confluence for 4-5 days. The cells obtained are passaged using trypsin/EDTA and split at a ratio of 1 in 5. […]
b) Preparation of Cells for Assay
Prior to the assay, the CHO-A2b cells are plated onto white 96-well View Plate tissue culture plates (Packard) at a density of 50,000 cells per well in 50 μl of DMEM, and the plates are incubated at 37° C., 5% CO2 and 100% humidity. […]
c) Preparation of Reference and Test Compounds
10 mM solutions of the reference compound, Xanthine Amine Cogener (XAC), and the test compound in dimethyl sulfoxide (DMSO) are prepared. The solutions are further diluted with DMSO to 100 μM, then diluted to 10 μM, and finally to 250 nM or 2.5 μM with Assay Buffer (DMEM Phenol Red-free tissue culture media supplemented with 10 μM Rolipram and 10 U/ml adenosine deaminase (ADA). The resulting solutions (40 μl) are added to the cells in the appropriate wells, the final concentration per well being 100 nM or 1 μM, and the plates are incubated at 37° C., 5% CO2 and 100% humidity. […]
d) Luciferase Reporter Gene Assay
5′-N-ethylcarboxamidoadenosine (NECA), an adenosine A2b agonist, is prepared as a […] solution in DMSO and then diluted to 100 μM with Assay Buffer. This solution is serially diluted in Assay Buffer to give a series of 10 NECA concentrations from 100 to 0.01 μM. 10 μl portions of the resulting NECA solutions are added to the mixtures of CHO-A2b cells and reference or test compound solutions prepared as described above (preincubated for 30 minutes), final concentrations ranging from […] per well. The cells are incubated at 37° C., 5% CO2 and 100% humidity for 3 hours to induce release of cAMP, which then binds to cAMP binding protein (CBP) and the resulting complex interacts with the reporter plasmid to express Luciferase. 100 μl of Steady-Glo, a Luciferase assay substrate from Promega, is added to all wells to lyse the cells and generate luminescence in proportion to the amount of Lucifrease produced. The plates are left for a minimum of 5 minutes before being read on the luminescence program of a Topcount NXT microplate scintillation counter (ex Packard). Concentration—response curves are plotted from the luminescence data using Activity base software and KB values for the antagonists under test are calculated from the shifts of the curve at a particular concentration (KB=[antagonist]/(concentration ratio−1)

Structure (SMILES) | Kb
Cc1ccnc(Nc2nc(-c3cccc(C#N)c3)c(-c3ccncn3)s2)c1 [Example 4] | 38 nM
N#Cc1cccc(-c2nc(Nc3ccccn3)sc2-c2ccncn2)c1 [Example 9] | 6 nM
N#Cc1cccc(Nc2nc(-c3cccc(C#N)c3)c(-c3ccncn3)s2)c1 [Example 6] | 29 nM

Further lines, results first:

Kb | Structure (SMILES)
50 nM | CN(C)c1cc(-c2sc(Nc3cccc(F)c3)nc2-c2cccc(C#N)c2)cnn1 [Example 16]
2 nM | N#Cc1cccc(-c2nc(Nc3cnccn3)sc2-c2ccncn2)c1 [Example 12, 3-[2-(Pyrazin-2-ylamino)-5-pyrimidin-4-yl-thiazol-4-yl]-benzonitrile]

System: not given
Experiment: not given
Settings: not given

melting point | Structure (SMILES)
> 280 °C | N#Cc1cccc(-c2nc(Nc3cnccn3)sc2-c2ccncn2)c1 [Example 12, 3-[2-(Pyrazin-2-ylamino)-5-pyrimidin-4-yl-thiazol-4-yl]-benzonitrile]
255 to 256 °C | COc1cccc(C(=O)Nc2nc(-c3cccc(C#N)c3)c(-c3ccncn3)s2)c1 [Example 11, N-[4-(3-Cyano-phenyl)-5-pyrimidin-4-yl-thiazol-2-yl]-3-methoxy-benzamide]
> 275 °C | N#Cc1cccc(-c2nc(Nc3ccc(C(=O)O)cc3)sc2-c2ccnnc2)c1 [Example 15, 4-[4-(3-Cyano-phenyl)-5-pyridazin-4-yl-thiazol-2-ylamino]-benzoic acid]
